Source: patent publication US11097023B1, “Pre-filled syringe containing sugammadex” (Par Pharmaceutical, Inc., priority 2020, dated 2021)

Columns and labels:
[1] = Thermal-forced degradation of sugammadex sodium (Example V); format: physicochemical; details: solution in WFI, 60° C.
Experimental: To confirm that the impurities observed in Example III were at least in part a result of thermal degradation, sugammadex sodium as a solution in WFI was subjected to an elevated temperature of 60° C. for ten days. S-oxide diastereomer-1 impurity, s-oxide diastereomer-2 impurity, impurity at ˜1.12 RRT, mono chloro impurity, unknown impurities, and mono hydroxyl impurity concentrations were measured using HPLC technique as described in Example VII after the first, third, fifth, and tenth day.
(§1) For the following procedure, amber-colored glassware was used for all preparations. In addition, because sugammadex sodium is markedly hygroscopic when exposed to air at room temperature and when exposed to humidity, a relative humidity of less than 40% RH was maintained during weighing.
(§2) First, a buffer solution having a pH of 2.0 was prepared by weighing and transferring about 4.08 g of potassium dihydrogen phosphate (AR grade of equivalent) into 1000 mL water (HPLC Grade or Milli-Q) and mixing. The pH of the buffer solution was adjusted to 2.0±0.05 with concentrated ortho-phosphoric acid (HPLC grade or equivalent) and mixed well.
(§3) A mobile phase A was then prepared by transferring 950 mL of the buffer solution and 50 mL of methanol (HPLC grade or equivalent) into a bottle, mixing, and sonicating to degas. A mobile phase B was also prepared by transferring 300 mL of the buffer solution and 700 mL of acetonitrile (HPLC grade or equivalent) into a bottle, mixing, and sonicating to degas.
(§4) A standard solution (50 ppm) was also prepared by weighing and transferring 27.2 mg of sugammadex sodium standard into a 50 mL amber color volumetric flask. About 30 mL of 100% water (HPLC Grade or Milli-Q) was added, and the mixture was sonicated to dissolve. The solution was made up to the mark with 100% water (HPLC Grade or Milli-Q) and mixed well. Then, 5.0 mL of this solution was transferred to 50 mL amber color volumetric flasks, made up to the mark with 100% water (HPLC Grade or Milli-Q), and mixed well.
(§5) To prepare a sensitivity solution (5 ppm), 5.0 mL of the standard solution was transferred to a 50 mL amber volumetric flask, made-up to the mark with 100% water (HPLC Grade or Milli-Q), and mixed well.
(§6) A placebo solution was also prepared by weighing and transferring 1.0 g of placebo into a 20 mL amber color volumetric flask, diluting to 20 mL with 100% water (HPLC Grade or Milli-Q), and mixing well.
(§7) A sample solution (5000 ppm) was also prepared by weighing and transferring 1.0 g of the sample to be analyzed into a 20 mL amber color volumetric flask, diluting to 20 mL with 100% water (HPLC Grade or Milli-Q), and mixing well.
(§8) When performing the chromatographic procedure, for initial samples, two samples were prepared in duplicate. For stability samples, a single sample was prepared. In addition, any peak due to blank and/or placebo was disregarded, any peak below LOQ level was disregarded, and any peak corresponding to mono chloro impurity was disregarded.
(§9) The percent impurity was then calculated as follows:
(§10) [formula] where: A(Spl)=Peak response of impurity obtained from sample solution A(Std)=Average peak response of sugammadex from the standard solution Wt(Std)=Weight (mg) of sugammadex working standard. Wt(Spl)=Weight (g) of Sample LC=Label Claim (100 mg/ml sugammadex) D=Density of sample (mg/ml) P=Potency of the standard (Anhydrous basis+Solvent free) WC=Water content of sugammadex working standard. 2002.12=Molecular weight of sugammadex 2178.01=Molecular weight of sugammadex sodium
(§11) Total impurities were calculated by adding all known impurities (excluding mono hydroxy impurity) and all unknown impurities.

[2] = Oxidative-forced degradation of sugammadex sodium (Example VI); format: physicochemical
Experimental: To confirm that impurities observed in sugammadex sodium-containing solutions could be at least in part a result of oxidative degradation, sugammadex sodium as a solution in […] was subjected to an atmosphere of either 0.01% H2O2 for one hour or to an atmosphere of 0.002% H2O2 for five hours. S-oxide diastereomer-1 impurity, s-oxide diastereomer-2 impurity, impurity at ˜1.12 RRT, mono chloro impurity, unknown impurities, and mono hydroxyl impurity concentrations were measured using HPLC technique as described in Example VII after the first hour of 0.01% H2O2 exposure and after the first, fourth, and fifth hour of 0.002% H2O2 exposure.
as §1, §2, §3, §4, §5, §6, §7, §8, §9, §10, §11

(Excluding Monohydroxy impurity) ([1]; after fifth day): 0.03 % impurity
Highest Unknown impurity ([1]; after fifth day): 7.18 % impurity
Impurity at ~1.12 RRT ([1]; after fifth day): 0.10 % impurity
Mono chloro impurity ([1]; after fifth day): 0.03 % impurity
Other total impurities ([1]; after fifth day): 0.80 % impurity
S-oxide diastereomer-1 impurity ([1]; after fifth day): 0.16 % impurity
S-oxide diastereomer-2 impurity ([1]; after fifth day): 0.21 % impurity
Total impurities ([1]; after fifth day): 8.48 % impurity
(Excluding Monohydroxy impurity) ([1]; after first day): 0.03 % impurity
Highest Unknown impurity ([1]; after first day): 4.44 % impurity
Impurity at ~1.12 RRT ([1]; after first day): 0.10 % impurity
Mono chloro impurity ([1]; after first day): 0.04 % impurity
Other total impurities ([1]; after first day): 0.71 % impurity
S-oxide diastereomer-1 impurity ([1]; after first day): 0.12 % impurity
S-oxide diastereomer-2 impurity ([1]; after first day): 0.17 % impurity
Total impurities ([1]; after first day): 5.58 % impurity
(Excluding Monohydroxy impurity) ([1]; after tenth day): 0.02 % impurity
Highest Unknown impurity ([1]; after tenth day): 15.04 % impurity
Impurity at ~1.12 RRT ([1]; after tenth day): 0.08 % impurity
Mono chloro impurity ([1]; after tenth day): 0.03 % impurity
Other total impurities ([1]; after tenth day): 0.85 % impurity
S-oxide diastereomer-1 impurity ([1]; after tenth day): 0.48 % impurity
S-oxide diastereomer-2 impurity ([1]; after tenth day): 0.42 % impurity
Total impurities ([1]; after tenth day): 16.91 % impurity
(Excluding Monohydroxy impurity) ([1]; after third day): 0.03 % impurity
Highest Unknown impurity ([1]; after third day): 5.34 % impurity
Impurity at ~1.12 RRT ([1]; after third day): 0.10 % impurity
Mono chloro impurity ([1]; after third day): 0.03 % impurity
Other total impurities ([1]; after third day): 0.79 % impurity
S-oxide diastereomer-1 impurity ([1]; after third day): 0.14 % impurity
S-oxide diastereomer-2 impurity ([1]; after third day): 0.20 % impurity
Total impurities ([1]; after third day): 6.59 % impurity
(Excluding Monohydroxy impurity) ([2]; 0.002% H2O2, after fifth hour): 0.03 % impurity
Highest Unknown impurity ([2]; 0.002% H2O2, after fifth hour): 0.07 % impurity
Impurity at ~1.12 RRT ([2]; 0.002% H2O2, after fifth hour): 0.09 % impurity
Mono chloro impurity ([2]; 0.002% H2O2, after fifth hour): 0.03 % impurity
Other total impurities ([2]; 0.002% H2O2, after fifth hour): 0.82 % impurity
S-oxide diastereomer-1 impurity ([2]; 0.002% H2O2, after fifth hour): 4.11 % impurity
S-oxide diastereomer-2 impurity ([2]; 0.002% H2O2, after fifth hour): 5.02 % impurity
Total impurities ([2]; 0.002% H2O2, after fifth hour): 10.14 % impurity
(Excluding Monohydroxy impurity) ([2]; 0.002% H2O2, after first hour): 0.03 % impurity
Highest Unknown impurity ([2]; 0.002% H2O2, after first hour): 0.07 % impurity
Impurity at ~1.12 RRT ([2]; 0.002% H2O2, after first hour): 0.10 % impurity
Mono chloro impurity ([2]; 0.002% H2O2, after first hour): 0.04 % impurity
Other total impurities ([2]; 0.002% H2O2, after first hour): 0.31 % impurity
S-oxide diastereomer-1 impurity ([2]; 0.002% H2O2, after first hour): 1.20 % impurity
S-oxide diastereomer-2 impurity ([2]; 0.002% H2O2, after first hour): 1.47 % impurity
Total impurities ([2]; 0.002% H2O2, after first hour): 3.20 % impurity
(Excluding Monohydroxy impurity) ([2]; 0.002% H2O2, after fourth hour): 0.02 % impurity
Highest Unknown impurity ([2]; 0.002% H2O2, after fourth hour): 0.07 % impurity
Impurity at ~1.12 RRT ([2]; 0.002% H2O2, after fourth hour): 0.09 % impurity
Mono chloro impurity ([2]; 0.002% H2O2, after fourth hour): 0.03 % impurity
Other total impurities ([2]; 0.002% H2O2, after fourth hour): 0.65 % impurity
S-oxide diastereomer-1 impurity ([2]; 0.002% H2O2, after fourth hour): 3.42 % impurity
S-oxide diastereomer-2 impurity ([2]; 0.002% H2O2, after fourth hour): 4.18 % impurity
Total impurities ([2]; 0.002% H2O2, after fourth hour): 8.45 % impurity
(Excluding Monohydroxy impurity) ([2]; 0.01% H2O2, after first hour): 0.02 % impurity
Highest Unknown impurity ([2]; 0.01% H2O2, after first hour): 3.07 % impurity
Impurity at ~1.12 RRT ([2]; 0.01% H2O2, after first hour): 0.08 % impurity
Mono chloro impurity ([2]; 0.01% H2O2, after first hour): 0.03 % impurity
Other total impurities ([2]; 0.01% H2O2, after first hour): 3.66 % impurity
S-oxide diastereomer-1 impurity ([2]; 0.01% H2O2, after first hour): 10.64 % impurity
S-oxide diastereomer-2 impurity ([2]; 0.01% H2O2, after first hour): 12.89 % impurity
Total impurities ([2]; 0.01% H2O2, after first hour): 30.36 % impurity
SMILES: O=C([O-])CCSC[C@H]1O[C@@H]2O[C@H]3[C@H](O)[C@@H](O)[C@@H](O[C@H]4[C@H](O)[C@@H](O)[C@@H](O[C@H]5[C@H](O)[C@@H](O)[C@@H](O[C@H]6[C@H](O)[C@@H](O)[C@@H](O[C@H]7[C@H](O)[C@@H](O)[C@@H](O[C@H]8[C@H](O)[C@@H](O)[C@@H](O[C@H]9[C@H](O)C(O)[C@@H](O[C@H]1[C@H](O)[C@H]2O)O[C@@H]9CSCCC(=O)[O-])O[C@@H]8CSCCC(=O)[O-])O[C@@H]7CSCCC(=O)[O-])O[C@@H]6CSCCC(=O)[O-])O[C@@H]5CSCCC(=O)[O-])O[C@@H]4CSCCC(=O)[O-])O[C@@H]3CSCCC(=O)[O-].[Na+].[Na+].[Na+].[Na+].[Na+].[Na+].[Na+].[Na+] (stereo partly drawn) [sugammadex sodium]
Impurities generated via thermal degradation ([1]; ten days): at least s-oxide diastereomer-1 impurity, s-oxide diastereomer-2 impurity, and unknown impurities are generated via thermal degradation
Impurities generated via oxidation ([2]; 0.01% H2O2 one hour or 0.002% H2O2 five hours): at least s-oxide diastereomer-1 impurity, s-oxide diastereomer-2 impurity, and unknown impurities are generated via oxidation
